From PMC6345745, “Discovery of novel hit compounds with broad activity against visceral and cutaneous Leishmania species by comparative phenotypic screening” (Scientific Reports, 2019)

Assays:
[1] = test system: BMDM (bone marrow derived macrophages); assay: Host cell toxicity (macrophage number) in the L. donovani high content assay; assay type: cell-based, mouse; conditions: for EC50: Mus musculus, BMDM, 72 h, toxicity against macrophages, 3 days, concentrations from 10 to 0.16 µM
Experimental: Primary mouse macrophages were prepared as described. Briefly, bone marrow cells were recovered from BALB/c mice and were resuspended in complete DMEM medium (PAN Biotech) supplemented with 75 ng/ml of recombinant mouse CSF-1 (ImmunoTools). Cells were distributed in hydrophobic Petri dishes (Greiner 664161, 1,5 × 10^7 in 11 ml) and incubated at 37 °C in a 7.5% CO2 air atmosphere for 6 days (with mCSF-1 supplemented medium added at day 3).
(§1) Bone marrow derived macrophages (BMDMs) at day 6 of differentiation were resuspended in complete medium supplemented with CSF-1 (25 ng/ml) and deposited in 384 well plates (culture-treated, flat-optically clear bottom, Cellcarrier plate, PerkinElmer). Five hours later purified Am were added.
(§2) One day after macrophage infection, Leish-Box compounds dissolved in DMSO were added for 3 days at 10 or 1 μM final concentration resulting in a 1% DMSO final concentration. Each compound was tested in quadruplicates. Controls included mock (no liquid added), vehicle control (DMSO), positive control (anti-leishmanial amphotericin B, AmB), and cytotoxicity control (cycloheximide, Cyclo).
(§3) The high content assay used to assess the anti-leishmanial activity against intramacrophagic L. donovani amastigotes corresponds to the L. amazonensis HCS protocol up to the drug incubation step. Then, BMDM cultures were fixed with 4% paraformaldehyde solution in PBS for 1 hour at room temperature, washed with PBS, blocked with 50 mM NH4Cl-PBS for 15 min, and saturated for 30 min with saponin-PBS (0.1 mg/ml) containing 5% normal goat serum. All washing steps were performed with saponin-PBS. Cells were incubated for 45 min with saponin-PBS with 0.25% gelatin and an immune serum obtained from a L. donovani infected hamster (dilution 1/1000), washed twice, and further incubated for 45 min with saponin-PBS containing 0.25% gelatin and 2 µg/ml conjugated AlexaFluor 488 goat anti hamster IgG (Jackson ImmunoReasearch). Finally, after additional washing, Hoechst 33342 (5 µg/ml) and HCS CellMask Blue stain (HCS, Invitrogen Molecular Probes, 2 µg/ml) were added for 30 min at room temperature, washed twice with PBS and stored at 4 °C until acquisition. For hit compounds EC50s were calculated using SigmaPlot software (four parameter logistic equation) following application of a range of concentrations (from 10 to 0.16 µM) performed in duplicates.
(§4) Images were transferred to the Columbus Conductor™ Database (Perkin Elmer Technologies) and analyzed using the integrated Image analysis building blocks. For L. donovani HCA, we developed a new script based on object segmentation subroutines detecting successively the macrophage nucleus, the macrophage cytoplasm, the parasites and their nuclei, with their associated features (number, size and object intensity). All methods used for segmentation are described in the Columbus Manuel. Analysis was simplified by only taking into account the number of macrophages and the number of amastigotes per macrophage, which was the common way to estimate the anti-leishmanial activity in screening campaigns. For the sake of clarity, both toxicity against host cells and activity against the parasites of tested compounds were normalized to DMSO-treated controls and expressed as percent of DMSO controls. The viability index is calculated by establishing a ratio of macrophage numbers between compound- and DMSO-treated cells, while the anti-leishmanial activity is represented by the number of amastigotes per macrophage. Compounds causing a 50% or higher reduction of macrophage density were considered toxic. […] For the L. amazonensis HCA, we applied the method we described previously. Quantitative values obtained for host cell and parasite numbers were exported to Excel and SigmaPlot for further analysis and graphical representations.

[2] = test system: intracellular L. donovani amastigotes (strain Ld1S); assay: High content assay on intramacrophagic L. donovani amastigotes in primary mouse macrophages; assay type: cell-based, Leishmania donovani; conditions: for SI (selectivity index): EC50 (BMDM) versus EC50 (L. donovani Am); for EC50: Leishmania donovani, BMDM, 72 h, read-out: EC50 (L. donovani Am)
Experimental: as §1, §2, §3
(§5) Images of macrophage cultures were acquired using the automatic Opera QEHS confocal imaging system (Perkin Elmer Technology). For the L. donovani HCA, a 40x water objective and two lasers (488 nm for immuno-stained parasites; 405 nm for Hoechst-stained parasite and macrophage nuclei, and HCS-stained macrophage cytoplasm) were used for acquiring 285 fields for the entire well or 30 fields per well in routine HCA conditions. For L. amazonensis HCA, a 10x air objective and three lasers (561 nm for mCherry-expressing parasites; 488 nm for LysoTracker-containing PVs; 405 nm for Hoechst-stained macrophage nuclei) were used to acquire images from entire wells (15 fields).
as §4, with “Quantitative values obtained for host cell and parasite numbers were exported to Excel and SigmaPlot for further analysis and graphical representations.” left out

[3] = test system: intracellular L. amazonensis amastigotes (strain LV79); assay: High content assay on intramacrophagic L. amazonensis amastigotes in primary mouse macrophages; assay type: cell-based, Leishmania amazonensis; conditions: hit compounds of Figure 6
Experimental: as §1, §2
The high content assay used to assess the anti-leishmanial activity against intramacrophagic amastigotes of L. amazonensis has been described elsewhere. Briefly, after 3 days of co-incubation with compounds, BMDM nuclei and parasitophorous vacuoles (PVs) were stained with Hoechst 33342 (Invitrogen Molecular Probes, 12 µM) and LysoTracker Green (Life Technologies, DND-26, 1 µM), respectively. Acquisition of images was performed on live cell cultures.
as §5

[4] = test system: L. donovani promastigotes (Ld1S); assay: Resazurin reduction viability assay on cultured L. donovani promastigotes; assay type: cell-based; conditions: Leishmania donovani, read-out: EC50 against L. donovani promastigotes
Experimental: Figure 4 Leish-Box screening results for cultured L. donovani promastigotes. A resazurin-based viability assay was used to assess anti-leishmanial activity of Leish-Box compounds against Ld1S promastigotes. Two days after compound addition to parasite cultures at logarithmic growth phase, resazurin was added for an additional 24 hours before reading the level of resofurin fluorescence using an Infinite™ M200 plate reader (Tecan™). […] The outer and inner circles represent respectively 80% and 50% threshold activity values.
Anti-leishmanial activity of compounds was evaluated using an adapted resazurin reduction assay[53] with cell-cycling promastigotes from logarithmic growth phase. Compounds were tested in quadruplicates at 20, 4 and 0.8 μM at 26 °C in 384-well plates. DMSO vehicle and AmB (1 μM) were used as controls. Two days later, resazurin was added (10 μL per well at 25 μg/mL) and fluorescence intensity was measured 24 h later using a Tecan Safire 2 reader (excitation 558 ± 4.5 nm; emission 585 ± 10 nm). Following background subtraction (complete parasite culture medium with resazurin in absence of parasites), data were expressed as percentages of growth compared to DMSO-treated controls (POC).

Row | SMILES | toxicity toward the host cell ([1]; BMDMs recovered after three days of treatment, normalized to mock) | amastigote survival compared to DMSO control ([2]; positive control, 3 days) [%] | activity on L. amazonensis intramacrophagic amastigotes [3] | EC50 [1] [nM] | SI (selectivity index) [2] | EC50 [2] [nM] | EC50 [4] [nM]
1 | C[C@@H]1[C@H](O)[C@@H](C)/C=C/C=C/C=C/C=C/C=C/C=C/C=C/[C@H](O[C@@H]2O[C@H](C)[C@@H](O)[C@H](N)[C@@H]2O)C[C@@H]2O[C@](O)(C[C@@H](O)C[C@@H](O)[C@H](O)CC[C@@H](O)C[C@@H](O)CC(=O)O[C@H]1C)C[C@H](O)[C@H]2C(=O)O [AmB, amphotericin B, reference compound] | some toxicity | 0.8 |  |  |  |  | 
2 | COc1ccc(NS(=O)(=O)c2cc(NC(=O)c3ccc([N+](=O)[O-])s3)ccc2OC)cc1 [TCMDC-143163] |  |  | active | > 10000 | > 10 | 790 | 
3 | O=C(Nc1ccc(S(=O)(=O)N2CCCC2)cc1)c1ccc([N+](=O)[O-])s1 [TCMDC-143169] |  |  | active | > 10000 | > 1,5 | 6880 | 
4 | COc1ccc(Oc2ccc(C(C)N(C)c3ncc4c(N)nc(N)nc4n3)cc2)cc1 (stereo not shown) [TCMDC-143295] |  |  | active | > 10000 | > 10 | 480 | 80
5 | O=C(Nc1cccc(S(=O)(=O)Nc2ccc(Br)cc2)c1)c1ccc([N+](=O)[O-])s1 [TCMDC-143563] |  |  | active | 6250 | > 10 | 590 | 
6 | Cc1ccc(NC(=O)c2ccc([N+](=O)[O-])s2)cc1S(=O)(=O)N1CCOCC1 [TCMDC-143577] |  |  | active | 5090 |  | 1250 | 
